Measured values as given in US11667643B2, “RIP1K inhibitors” (priority 2020, dated 2023).
Like-named read-outs stand apart in the source and are kept apart here.

Tests used:
RIPK1 = RIPK1 (Homo sapiens (Human), UniProt Q13546); test: biochemical; format: biochemical
Protocol: In this example, compounds of the disclosure were evaluated using a biochemical assay using the ADP-Glo™ technology.
ADP-Glo™ (Promega, Madison, Wis., USA) reagents were thawed at ambient temperature. Kinase Detection Reagent was prepared by mixing kinase detection buffer with the lyophilized kinase detection substrate.
A […] stock volume of 5× Reaction Kinase Buffer was made by mixing 1000 μl of 1M MgCl2, 500 μl of 1M Tris-HCL pH7.4, 0.5 mg/ml (25 mg) of BSA, and 3475 μl of distilled H2O. A 3 ml 2× working stock volume of Reaction Kinase Buffer was made containing a final concentration of 100 μM DTT and 4 mM MnCl2.
Components of RIPK1 enzyme (Rigel Pharmaceuticals, South San Francisco, Calif., USA) were thawed on ice. Diluted RIPK1 was prepared in 1× Kinase Reaction Buffer (diluted from 2× buffer) to 31 ng/well.
1.0 ul of diluted compound was added to a 384 well plate in duplicate. […] The final reaction volume was 5.0 μl. The plate was quickly centrifuged and the reaction was incubated at 30° C. for 30 minutes. Adding 5 μl of ADP-Glo™ terminated the reaction. The plate was quickly centrifuged and the reaction was incubated at room temperature for 40 minutes. Kinase Detection Reagent was then added and incubated at room temperature for 30 minutes. The relative light unit (RLU) of kinase reaction was determined by luminescent (Luminescence 0.1 s) using a Wallac Victor2 Luminometer (PerkinElmer, Waltham, Mass., USA).

U937 cells = test: U937 cell necroptosis assay (TNFa + zVAD, CellTiter-Glo recovery), functional human RIP1 assay; format: cell-based; conditions: Homo sapiens, U-937, 18 h, read-out: U937 Zvad TNF CTG Recovery, U937, TNFa + zVAD (IC50), U937 cells, zVAD-fmk, TNFa 2 ng/mL, 18 hours, CellTiter-Glo
Protocol: (§1) In this example, U937 and L929 cells were exposed to compounds of the present disclosure and a cell necroptosis assay was conducted to evaluate compound activity in functional human RIP1 and murine RIP1 assays.
(§2) U937 and L929 cells were obtained from the American Type Culture Collection (Manassa, Va., USA). Both cells were maintained in logarithmic growth phase in complete RPMI 1640 media (Sigma, ST Louis, Mo., USA) supplemented with 10% fetal bovine serum (Sigma, ST Louis, Mo., USA) at 37° C. with 5% CO2. For necroptosis assay, L929 cells were plated for 18 h in 100 μL/well medium at 10K cells/well in Costar 96-well black clear-bottom plates (Fisher Scientific, Hampton, N.H., USA); U937 cells were plated on the day of the assay in 50 μL/well medium containing 60 uM zVAD-fmk (Lonza, Basel, Switzerland) at 50K cells/well. Medium from L929 cells were removed from the 96-well plates and replaced with 50 μL/well new medium containing 40 uM zVAD-fmk. Each compound of the present disclosure evaluated in this example was serially diluted in DMSO from 2.5 mM in 4-fold dilutions, and then diluted 1:125 in complete medium. 50 μL/well 2× of the compound was then added to the cells in the plates. The cells were pre-incubated with the compound for 1 hour at 37° C. with 5% CO2 and before addition of 10 μL/well 11×TNFa (Peprotech, Rocky Hill, N.J., USA) to give a final concentration of 2 ng/mL for TNFa. The relative amount of necroptosis cells was determined by luminescent using a Wallac Victor2 Luminometer (PerkinElmer, Waltham, Mass., USA) and a CellTiter-Glo® Luminescent Cell Viability Reagent Assay (Promega, Madison, Wis., USA) added per manufacturer instructions after 18 hours of TNFa stimulation at 37° C. with 5% CO2. This example establishes that embodiments of the compounds described herein have unexpectedly potent activity against human RIP1 and murine RIP1, which allows their assessment in in vivo mouse models of disease.

L929 cells = test: L929 cell necroptosis assay (TNFa + zVAD, CellTiter-Glo recovery), functional murine RIP1 assay; format: cell-based; conditions: Mus musculus, L929, 18 h, read-out: L929-CTG-recovery, L929, TNFa + zVAD (IC50), L929 cells, zVAD-fmk, TNFa 2 ng/mL, 18 hours, CellTiter-Glo
Protocol: as §1, §2

[1] = RIPK1 enzyme 31 ng/well, 30° C. for 30 minutes, luminescence, read-out: RIPK1 ADP-Glo Kinase (IC50)

Chain of RIPK1 (Q13546 whole entry, species assumed): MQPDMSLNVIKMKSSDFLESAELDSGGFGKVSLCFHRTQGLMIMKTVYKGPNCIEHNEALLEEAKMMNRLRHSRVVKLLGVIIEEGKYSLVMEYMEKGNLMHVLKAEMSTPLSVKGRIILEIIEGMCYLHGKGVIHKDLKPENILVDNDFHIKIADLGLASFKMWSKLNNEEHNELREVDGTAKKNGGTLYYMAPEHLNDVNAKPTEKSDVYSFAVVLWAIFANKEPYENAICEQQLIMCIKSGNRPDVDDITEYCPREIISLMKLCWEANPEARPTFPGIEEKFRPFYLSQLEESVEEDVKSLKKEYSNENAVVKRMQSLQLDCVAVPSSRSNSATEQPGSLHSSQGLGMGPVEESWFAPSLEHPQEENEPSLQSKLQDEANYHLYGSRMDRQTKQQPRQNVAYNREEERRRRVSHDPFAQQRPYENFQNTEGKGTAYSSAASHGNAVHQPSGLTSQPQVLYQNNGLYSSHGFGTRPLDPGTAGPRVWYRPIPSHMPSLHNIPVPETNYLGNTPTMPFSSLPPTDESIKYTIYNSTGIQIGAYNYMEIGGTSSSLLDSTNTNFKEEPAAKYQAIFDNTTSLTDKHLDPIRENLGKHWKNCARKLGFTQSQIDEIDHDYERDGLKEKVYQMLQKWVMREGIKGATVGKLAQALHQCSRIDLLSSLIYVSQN

SMILES | IC50 (RIPK1; [1]) [µM] | IC50 (U937 cells) [µM] | IC50 (L929 cells) [µM] | IC50 (RIPK1) [µM]
Cc1cn2c(n1)C(NC(=O)c1ncn(Cc3c(Cl)cccc3Cl)n1)CCc1ccccc1-2 (racemic) [Compound I-35, (±)-1-(2,6-Dichlorobenzyl)-N-(2-methyl-5,6-dihydro-4H-benzo[f]imidazo[1,2-a]azepin-4-yl)-1H-1,2,4-triazole-3-carboxamide] | 2.08 | 2.68 | 10000 | –
O=C(NC1CCc2ccc(N3CCC4(CCOCC4)CC3)cc2-n2c1noc2=O)c1n[nH]c(Cc2ccccc2)n1 (racemic) [Compound I-65, (±)-5-Benzyl-N-(1-oxo-9-(3-oxa-9-azaspiro[5.5]undecan-9-yl)-5,6-dihydro-1H,4H-benzo[f][1,2,4]oxadiazolo[4,3-a]azepin-4-yl)-1H-1,2,4-triazole-3-carboxamide] | 0.0678 | 0.0211 | 3.26 | –
O=C(NC1CCc2ccc(N3CC4(CCOCC4)C3)cc2-n2ccnc21)c1n[nH]c(Cc2ccccc2)n1 (racemic) [Compound I-84, (±)-N-(9-(7-Oxa-2-azaspiro[3.5]nonan-2-yl)-5,6-dihydro-4H-benzo[f]imidazo[1,2-a]azepin-4-yl)-5-benzyl-1H-1,2,4-triazole-3-carboxamide] | – | 0.0386 | 8.79 | 0.119
O=C(NC1CCc2ccc(N3CCC4(CCOCC4)CC3)cc2-n2ccnc21)c1cc(Oc2ccccc2)ccn1 (racemic) [Compound I-62, (±)-N-(9-(3-Oxa-9-azaspiro[5.5]undecan-9-yl)-5,6-dihydro-4H-benzo[f]imidazo[1,2-a]azepin-4-yl)-4-phenoxypicolinamide] | 0.0695 | 0.0301 | 10.1 | –
O=C(N[C@H]1CSc2ccccc2-n2c1noc2=O)c1cc(Cc2ccccc2)on1 [Compound I-28, 5-Benzyl-N-((4R)-1-oxo-4,5-dihydro-1H-benzo[b][1,2,4]oxadiazolo[4,3-d][1,4]thiazepin-4-yl)isoxazole-3-carboxamide] | 0.0679 | 0.0165 | 10.7 | –
O=C(N[C@H]1CSc2ccccc2-n2nnnc21)c1n[nH]c(Cc2ccccc2)n1 [Compound I-24, (R)-5-Benzyl-N-(4,5-dihydrobenzo[b]tetrazolo[1,5-d][1,4]thiazepin-4-yl)-1H-1,2,4-triazole-3-carboxamide] | 0.0272 | 0.0144 | 2.14 | –
O=C(NC1COc2ccccc2-n2cccc21)c1ncn(Cc2ccccc2F)n1 (racemic) [Compound I-38, (±)-N-(6,7-Dihydrobenzo[b]pyrrolo[1,2-d][1,4]oxazepin-7-yl)-1-(2-fluorobenzyl)-1H-1,2,4-triazole-3-carboxamide] | 0.0223 | 0.0439 | 9.79 | –
O=C1c2nn(Cc3ccccc3)c(Cl)c2CN1[C@H]1COc2ccccc2-n2nnnc21 [Compound I-79] | 0.652 | 16.1 | 10000 | –
O=C(NC1CCc2ccccc2-n2c1nc(Cl)c2Cl)c1ncn(Cc2c(Cl)cccc2Cl)n1 (racemic) [Compound I-73, (±)-N-(1,2-Dichloro-5,6-dihydro-4H-benzo[f]imidazo[1,2-a]azepin-4-yl)-1-(2,6-dichlorobenzyl)-1H-1,2,4-triazole-3-carboxamide] | 0.0924 | 0.903 | 10000 | –
O=C(NC1Cc2ccccc2-n2ccnc21)c1n[nH]c(Cc2ccccc2)n1 (racemic) [Compound I-66, (±)-5-Benzyl-N-(4,5-dihydroimidazo[1,2-a]quinolin-4-yl)-1H-1,2,4-triazole-3-carboxamide] | 13.5 | 10000 | 10000 | –
O=C(NC1CCc2ccccc2-n2ccnc21)c1n[nH]c(Cc2c(Cl)cccc2Cl)n1 (racemic) [Compound I-19, (±)-5-(2,6-Dichlorobenzyl)-N-(5,6-dihydro-4H-benzo[f]imidazo[1,2-a]azepin-4-yl)-1H-1,2,4-triazole-3-carboxamide] | 0.393 | 0.96 | 10000 | –
